The text below walks through data of patent publication US6239146A, “Neurotrophic difluoroamide agents” (Bristol-Myers Squibb Company, priority 2000, dated 2001).

The target in this test is FKBP12 (Homo sapiens, UniProt P62942). In words: FKBP12 Rotamase Inhibition Assay. It is filed as biochemical. The settings on record: for Ki: 4° C., chymotrypsin-coupled, succinyl-Ala-Leu-Pro-Phe-p-nitroanilide substrate, read-out: Ki (apparent Ki for inhibition of rotamase activity); for inhibition at 10 µM: read-out: Percent Inhibition at 10 μM (rotamase).
Sequence of FKBP12 (P62942 whole entry, species assumed): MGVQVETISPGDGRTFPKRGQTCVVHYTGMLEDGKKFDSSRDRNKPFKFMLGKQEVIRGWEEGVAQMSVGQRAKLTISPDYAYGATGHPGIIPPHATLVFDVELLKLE

For orientation: inhibition means the drop in the measured response relative to a control, in per cent. For `COc1cc(C(F)(F)C(=O)N2CCC[C@H]2C(=O)OCCCc2ccccc2)cc(OC)c1OC` [Example 1], the Ki was found to be 1.3 µM and the inhibition at 10 µM came to 97%.
As to `COc1cc(C(F)(F)C(=O)N2CCC[C@H]2C(=O)OCCCc2cccnc2)cc(OC)c1OC` [Example 2], the Ki is 0.877 µM.
Consider `COc1cc(C(F)(F)C(=O)N2CCC[C@H]2C(=O)OC(CCCc2ccccc2)CCCc2cccnc2)cc(OC)c1OC` (stereo partly shown) [Example 3], for which the Ki was determined as 0.104 µM and the inhibition at 10 µM worked out at 97%.
Take `COc1cc(C(F)(F)C(=O)N2CCCC[C@H]2C(=O)OC(CCCc2ccccc2)CCCc2cccnc2)cc(OC)c1OC` (stereo partly shown) [Example 4]: the inhibition at 10 µM turned out to be 98%.
The same measure, in the same setting: to `COc1cc(C(F)(F)C(=O)N2CCC[C@H]2C(=O)OC(C)(C)CCc2ccccc2)cc(OC)c1OC` [Example 5] belongs 70%.
In the case of `COc1cc(C(F)(F)C(=O)N2CCC[C@H]2C(=O)OC(CCc2ccccc2)c2ccccc2)cc(OC)c1OC` (stereo partly shown) [Example 6], the Ki worked out at 0.083 µM and the inhibition at 10 µM turned out to be 100%.
`COc1cc(C(F)(F)C(=O)N2CCCC[C@H]2C(=O)OC(CCc2ccccc2)c2ccccc2)cc(OC)c1OC` (stereo partly shown) [Example 7]: the inhibition at 10 µM worked out at 94%.
On the same count and under the same terms, next, `COc1cc(CCCOC(=O)[C@@H]2CCCN2C(=O)C(F)(F)c2cc(OC)c(OC)c(OC)c2)cc(OC)c1OC` [Example 8]: 38%.
Take `COc1cc(CCCOC(=O)[C@@H]2CCCCN2C(=O)C(F)(F)c2cc(OC)c(OC)c(OC)c2)cc(OC)c1OC` [Example 9]: the Ki was found to be 0.109 µM and the inhibition at 10 µM turned out to be 99%.
